Source: patent US10112906B2, “1-aryl-3-alkylpyrazole insecticides” (E. I. DU PONT DE NEMOURS AND COMPANY, priority 2013, dated 2018)

Columns and labels:
Assay type in all cases: in vivo
[1] = tested on: diamondback moth (Plutella xylostella (L.)); experiment: Test A: control of diamondback moth, foliar spray on mustard plant; conditions: neonate larvae, assessed after 6 days
Description: (§1) Test compounds were formulated using a solution containing 10% acetone, 90% water and 300 ppm X-77® Spreader Lo-Foam Formula non-ionic surfactant containing alkylarylpolyoxyethylene, free fatty acids, glycols and isopropanol (Loveland Industries, Inc. Greeley, Colo., USA). The formulated compounds were applied in 1 mL of liquid through a SUJ2 atomizer nozzle with ⅛ JJ custom body (Spraying Systems Co. Wheaton, Ill., USA) positioned 1.27 cm (0.5 inches) above the top of each test unit. Test compounds were sprayed at the rates indicated, and each test was replicated three times.
For evaluating control of diamondback moth (Plutella xylostella (L.)) the test unit consisted of a small open container with a 12-14-day-old mustard plant inside. This was pre-infested with ˜50 neonate larvae that were dispensed into the test unit via corn cob grits using an inoculator. The larvae moved onto the test plant after being dispensed into the test unit.
Test compounds were formulated and sprayed at 250 and/or 50 ppm. After spraying of the formulated test compound, each test unit was allowed to dry for 1 hour and then a black, screened cap was placed on top. The test units were held for 6 days in a growth chamber at 25° C. and 70% relative humidity. Plant feeding damage was then visually assessed based on foliage consumed, and larvae were assessed for mortality.

[2] = tested on: green peach aphid (Myzus persicae (Sulzer)); experiment: Test E: control of green peach aphid through contact and/or systemic means; conditions: 144 h, radish plant, assessed after 6 days; for mortality at 250 ppm: sprayed at 250 ppm
Description: as §1
For evaluating control of green peach aphid (Myzus persicae (Sulzer)) through contact and/or systemic means, the test unit consisted of a small open container with a 12-15-day-old radish plant inside. This was pre-infested by placing on a leaf of the test plant 30-40 aphids on a piece of leaf excised from a culture plant (cut-leaf method). The aphids moved onto the test plant as the leaf piece desiccated. After pre-infestation, the soil of the test unit was covered with a layer of sand.
Test compounds were formulated and sprayed at 250 and/or 50 ppm. After spraying of the formulated test compound, each test unit was allowed to dry for 1 hour and then a black, screened cap was placed on top. The test units were held for 6 days in a growth chamber at 19-21° C. and 50-70% relative humidity. Each test unit was then visually assessed for insect mortality.

[3] = tested on: Western Flower Thrips (Frankliniellla occidentalis (Pergande)); experiment: Test F: control of Western Flower Thrips through contact and/or systemic means; conditions: sprayed at 250 ppm; Soleil bean plant, adult thrips; held for 6 days
Description: as §1
For evaluating control of the Western Flower Thrips (Frankliniellla occidentalis (Pergande)) through contact and/or systemic means, the test unit consisted of a small open container with a 5-7-day-old Soleil bean plant inside.
Test compounds were formulated and sprayed at 250 ppm. After spraying, the test units were allowed to dry for 1 hour, and then 22-27 adult thrips were added to each unit. A black, screened cap was placed on top, and the test units were held for 6 days at 25° C. and 45-55% relative humidity.

[4] = tested on: potato leafhopper (Empoasca fabae (Harris)); experiment: Test D: control of potato leafhopper through contact and/or systemic means; conditions: 144 h, Soleil bean plant, adults, assessed after 6 days; for mortality at 250 ppm: sprayed at 250 ppm
Description: as §1
For evaluating control of potato leafhopper (Empoasca fabae (Harris)) through contact and/or systemic means, the test unit consisted of a small open container with a 5-6-day-old Soleil bean plant (primary leaves emerged) inside. White sand was added to the top of the soil, and one of the primary leaves was excised prior to application of the test compound.
Test compounds were formulated and sprayed at 250 and/or 50 ppm. After spraying of the formulated test compound, the test units were allowed to dry for 1 hour before they were post-infested with 5 potato leafhoppers (18-to-21-day-old adults). A black, screened cap was placed on the top of the test unit, and the test units were held for 6 days in a growth chamber at 20° C. and 70% relative humidity. Each test unit was then visually assessed for insect mortality.

[5] = tested on: fall armyworm (Spodoptera frugiperda (J. E. Smith)); experiment: Test B: control of fall armyworm, foliar spray on corn (maize) plant; conditions: 1-day-old larvae, assessed after 6 days
Description: as §1
For evaluating control of fall armyworm (Spodoptera frugiperda (J. E. Smith)) the test unit consisted of a small open container with a 4-5-day-old corn (maize) plant inside. This was pre-infested with 10-15 1-day-old larvae on a piece of insect diet.
Test compounds were formulated and sprayed at 250 and/or 50 ppm. After spraying of the formulated test compound, the test units were maintained in a growth chamber for 6 days at 25° C. and 70% relative humidity. Plant feeding damage was then visually assessed based on foliage consumed, and larvae were assessed for mortality.

[6] = tested on: corn planthopper (Peregrinus maidis (Ashmead)); experiment: Test C: control of corn planthopper through contact and/or systemic means; conditions: 144 h, sprayed at 250 ppm, corn (maize) plant, nymphs, assessed after 6 days
Description: as §1
For evaluating control of corn planthopper (Peregrinus maidis (Ashmead)) through contact and/or systemic means, the test unit consisted of a small open container with a 3-4-day-old corn (maize) plant inside. White sand was added to the top of the soil prior to application of the test compound.
Test compounds were formulated and sprayed at 250 and/or 50 ppm. After spraying of the formulated test compound, the test units were allowed to dry for 1 h before they were post-infested with ˜15-20 nymphs (18-to-21-day-old). A black, screened cap was placed on the top of each test unit, and the test units were held for 6 days in a growth chamber at 22-24° C. and 50-70% relative humidity. Each test unit was then visually assessed for insect mortality.

Row | Structure (SMILES) | control efficacy (40% or less feeding damage and/or 100% mortality) ([1]; sprayed at 50 ppm) | control efficacy (40% or less feeding damage and/or 100% mortality) ([1]; sprayed at 250 ppm) | mortality at 50 ppm ([2]; sprayed at 50 ppm) [%] | mortality at 250 ppm [2] [%] | control efficacy (30% or less plant damage and/or 100% mortality) [3] | mortality at 250 ppm [4] [%] | control efficacy (40% or less feeding damage and/or 100% mortality) ([5]; sprayed at 50 ppm) | control efficacy (40% or less feeding damage and/or 100% mortality) ([5]; sprayed at 250 ppm) | mortality at 250 ppm [6] [%] | mortality at 50 ppm ([4]; sprayed at 50 ppm) [%]
1 | N#CC1CCN(Cc2cn(-c3cc(C(F)(F)F)ccn3)nc2C2CCCC2)CC1 [Compound 26, 1-[[3-cyclopentyl-1-[4-(trifluoromethyl)-2-pyridinyl]-1H-pyrazol-4-yl]methyl]-4-piperidinecarbonitrile] | very good to excellent levels of control efficacy | very good to excellent levels of control efficacy | ≥ 80 | ≥ 80 | very good to excellent levels of control efficacy | ≥ 80 | very good to excellent levels of control efficacy | very good to excellent levels of control efficacy |  | 
2 | N#CC1CCN(Cc2cn(-c3ccc(Cl)c(Cl)c3)nc2C2CCC2)CC1 [Compound 27] | very good to excellent levels of control efficacy | very good to excellent levels of control efficacy |  |  | very good to excellent levels of control efficacy |  | very good to excellent levels of control efficacy | very good to excellent levels of control efficacy |  | 
3 | FC(F)(F)c1ccnc(-n2cc(CN3CCC(C(F)(F)F)CC3)c(C3CCCC3)n2)c1 [Compound 25, 2-[3-cyclopentyl-4-[[4-(trifluoromethyl)-1-piperidinyl]methyl]-1H-pyrazol-1-yl]-4-(trifluoromethyl)pyridine] | very good to excellent levels of control efficacy | very good to excellent levels of control efficacy |  | ≥ 80 | very good to excellent levels of control efficacy | ≥ 80 | very good to excellent levels of control efficacy | very good to excellent levels of control efficacy | ≥ 80 | ≥ 80
